# Measurements published in PubChem BioAssay AID2060512 (Molecular Pharmacology Branch, DTP, NCI, 2025).
# System: 186277-243-T-J2-PDC complex spheroid viability
# Test: Anticancer human tumor 186277-243-T-J2-PDC patient-derived colon adenocarcinoma cell line growth inhibition [GQUAD]
# Settings: for IC50: curve of first compound; for viability, T/C: stronger effect = lower value
# Procedure, shortened: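 Multi-cell-type spheroids of tumor cells with HUVEC and mesenchymal stem cells, treated with drug combinations. Concentrations descend in half-log steps from near clinical Cmax, or from 10 microM where Cmax is unknown; viability read-out.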
# [1] = second compound 0.0316 µM, first compound 0.0316 µM
# [2] = second compound 0.0316 µM, first compound 0.1 µM
# [3] = second compound 0.0316 µM, first compound 0.316 µM
# [4] = second compound 0.0316 µM, first compound 1 µM
# [5] = second compound 0.0316 µM, first compound 3.16 µM
# [6] = second compound 0.0316 µM, first compound 10 µM
# [7] = second compound 0.1 µM, first compound 0.0316 µM
# [8] = second compound 0.1 µM, first compound 0.1 µM
# [9] = second compound 0.1 µM, first compound 0.316 µM
# [10] = second compound 0.1 µM, first compound 1 µM
# [11] = second compound 0.1 µM, first compound 3.16 µM
# [12] = second compound 0.1 µM, first compound 10 µM
# [13] = second compound 0.316 µM, first compound 0.0316 µM
# [14] = second compound 0.316 µM, first compound 0.1 µM
# [15] = second compound 0.316 µM, first compound 0.316 µM
# [16] = second compound 0.316 µM, first compound 1 µM
# [17] = second compound 0.316 µM, first compound 3.16 µM
# [18] = second compound 0.316 µM, first compound 10 µM
# [19] = second compound 1 µM, first compound 0.0316 µM
# [20] = second compound 1 µM, first compound 0.1 µM
# [21] = second compound 1 µM, first compound 0.316 µM
# [22] = second compound 1 µM, first compound 1 µM
# [23] = second compound 1 µM, first compound 3.16 µM
# [24] = second compound 1 µM, first compound 10 µM
# [25] = second compound 3.16 µM, first compound 0.0316 µM
# [26] = second compound 3.16 µM, first compound 0.1 µM
# [27] = second compound 3.16 µM, first compound 0.316 µM
# [28] = second compound 3.16 µM, first compound 1 µM
# [29] = second compound 3.16 µM, first compound 3.16 µM
# [30] = second compound 3.16 µM, first compound 10 µM
# [31] = second compound 10 µM, first compound 0.0316 µM
# [32] = second compound 10 µM, first compound 0.1 µM
# [33] = second compound 10 µM, first compound 0.316 µM
# [34] = second compound 10 µM, first compound 1 µM
# [35] = second compound 10 µM, first compound 3.16 µM
# [36] = second compound 10 µM, first compound 10 µM
# 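Note: spheroids exposed to drugs for 7 days.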
# 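Throughout, for viability, T/C: 100% = DMSO vehicle control viability.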
compound,measurement,setting,value
CC1COCCN1c1cc(C2(O)CC3CCC(C2)O3)c2cnn(-c3ccn[nH]3)c2n1 (centres undefined) + Cc1[nH]c2ccc(F)cc2c1-c1nc2c3cccnc3c3ncccc3c2[nH]1,IC50,second compound 0.0316 µM,38.1 nM
same,IC50,second compound 0.1 µM,33.9 nM
same,IC50,second compound 0.316 µM,< 31.6 nM
same,IC50,second compound 1 µM,< 31.6 nM
same,IC50,second compound 3.16 µM,< 31.6 nM
same,IC50,second compound 10 µM,33.2 nM
same,"viability, T/C",[1],57.5%
same,"viability, T/C",[2],10.8%
same,"viability, T/C",[3],6.48%
same,"viability, T/C",[4],5.12%
same,"viability, T/C",[5],5.33%
same,"viability, T/C",[6],4.69%
same,"viability, T/C",[7],52.6%
same,"viability, T/C",[8],10.2%
same,"viability, T/C",[9],8.88%
same,"viability, T/C",[10],4.75%
same,"viability, T/C",[11],5.69%
same,"viability, T/C",[12],3.63%
same,"viability, T/C",[13],31.9%
same,"viability, T/C",[14],11.2%
same,"viability, T/C",[15],8.68%
same,"viability, T/C",[16],5.79%
same,"viability, T/C",[17],6.74%
same,"viability, T/C",[18],4.58%
same,"viability, T/C",[19],40.6%
same,"viability, T/C",[20],22.6%
same,"viability, T/C",[21],6.11%
same,"viability, T/C",[22],7.77%
same,"viability, T/C",[23],6.18%
same,"viability, T/C",[24],4.27%
same,"viability, T/C",[25],48.3%
same,"viability, T/C",[26],14.4%
same,"viability, T/C",[27],6.36%
same,"viability, T/C",[28],4.01%
same,"viability, T/C",[29],5.26%
same,"viability, T/C",[30],2.84%
same,"viability, T/C",[31],52%
same,"viability, T/C",[32],16.5%
same,"viability, T/C",[33],8.81%
same,"viability, T/C",[34],3.92%
same,"viability, T/C",[35],4.33%
same,"viability, T/C",[36],1.45%
COc1cccc2c1C(=O)c1c(O)c3c(c(O)c1C2=O)CC(O)(C(=O)CO)CC3OC1CC(N)C(O)C(C)O1 (centres undefined) + Cc1[nH]c2ccc(F)cc2c1-c1nc2c3cccnc3c3ncccc3c2[nH]1,IC50,second compound 0.0316 µM,696 nM
same,IC50,second compound 0.1 µM,511 nM
same,IC50,second compound 0.316 µM,686 nM
same,IC50,second compound 1 µM,674 nM
same,IC50,second compound 3.16 µM,623 nM
same,IC50,second compound 10 µM,667 nM
same,"viability, T/C",[1],104%
same,"viability, T/C",[2],99.2%
same,"viability, T/C",[3],95.9%
same,"viability, T/C",[4],28.9%
same,"viability, T/C",[5],5.65%
same,"viability, T/C",[6],0.19%
same,"viability, T/C",[7],117%
same,"viability, T/C",[8],88.9%
same,"viability, T/C",[9],70.5%
same,"viability, T/C",[10],29.5%
same,"viability, T/C",[11],0.54%
same,"viability, T/C",[12],0.13%
same,"viability, T/C",[13],96.1%
same,"viability, T/C",[14],116%
same,"viability, T/C",[15],81.4%
same,"viability, T/C",[16],34.9%
same,"viability, T/C",[17],0.6%
same,"viability, T/C",[18],0.26%
same,"viability, T/C",[19],104%
same,"viability, T/C",[20],96.3%
same,"viability, T/C",[21],85.5%
same,"viability, T/C",[22],32%
same,"viability, T/C",[23],0.77%
same,"viability, T/C",[24],0.15%
same,"viability, T/C",[25],84.7%
same,"viability, T/C",[26],92.1%
same,"viability, T/C",[27],75%
same,"viability, T/C",[28],32.4%
same,"viability, T/C",[29],1.37%
same,"viability, T/C",[30],0.86%
same,"viability, T/C",[31],90.4%
same,"viability, T/C",[32],98%
same,"viability, T/C",[33],81.5%
same,"viability, T/C",[34],32.8%
same,"viability, T/C",[35],1.17%
same,"viability, T/C",[36],0.68%
